Source: PMC4503722, “Novel Phenotypic Outcomes Identified for a Public Collection of Approved Drugs from a Publicly Accessible Panel of Assays” (PLoS ONE, 2015)

The molecules below were run on endothelial tube formation in co-cultures of ECFCs and ADSCs treated with VEGF (assay: cells). Settings: Homo sapiens; read-out: Anti-Angiogenesis.
Format: cell-based, human

Row | Compound | IC50
1 | CCCOc1ccc2nc(NC(=O)OC)[nH]c2c1 [Oxibendazole] | 0.328 µM

Same assay, conditions: IC50 / EC50; endothelial tube area, ADSC/ECFC co-culture; read-out: Anti-Angiogenesis

Row | Compound | IC50
2 | Cc1cc(O)c2ccccc2c1O [2-Methyl-1,4-naphthalenediol] | 4.89 µM
3 | CCCCCCCCCCCCCCCCCCNC(=O)OC1CCN(C(=O)OC[C@H](COC(=O)N(Cc2cccc[n+]2CC)C(=O)c2ccccc2OC)OC)CC1 [E-5880] | 1.5 µM

Same assay, conditions: S2 Table; module primary assay; 20 = no response at highest concentration, 20.1 = inactive in single concentration testing; read-out: Anti-Angiogenesis

Row | Compound | IC50
4 | C[n+]1c2cc(N)ccc2cc2ccc(N)cc21 [Acriflavinium chloride] | > 10 µM

What follows are molecules tested on nuclear β-catenin in C2C12 cells (assay: cells). Settings: IC50 / EC50; C2C12 beta-catenin translocation; read-out: Wnt Pathway.
Format: cell-based

Row | Compound | EC50
5 | Cc1cc(O)c2ccccc2c1O [2-Methyl-1,4-naphthalenediol] | 1.75 µM
6 | CCCCCCCCCCCCCCCCCCNC(=O)OC1CCN(C(=O)OC[C@H](COC(=O)N(Cc2cccc[n+]2CC)C(=O)c2ccccc2OC)OC)CC1 [E-5880] | > 10 µM

Same assay, conditions: Mus musculus, C2C12; read-out: Wnt Pathway

Row | Compound | EC50
7 | CCCOc1ccc2nc(NC(=O)OC)[nH]c2c1 [Oxibendazole] | 0.0881 µM

Same assay, conditions: read-out: Wnt Pathway

Row | Compound | EC50
8 | C[n+]1c2cc(N)ccc2cc2ccc(N)cc21 [Acriflavinium chloride] | 1.6 µM

What follows are molecules tested on INS-1E cells (assay: cells). Settings: IC50 / EC50; INS-1E; read-out: Insulin Secretion.
Format: cell-based, rat

Row | Compound | EC50
9 | Cc1cc(O)c2ccccc2c1O [2-Methyl-1,4-naphthalenediol] | > 10 µM
10 | CCCCCCCCCCCCCCCCCCNC(=O)OC1CCN(C(=O)OC[C@H](COC(=O)N(Cc2cccc[n+]2CC)C(=O)c2ccccc2OC)OC)CC1 [E-5880] | > 20 µM

Same assay, conditions: Rattus norvegicus, INS-1E; read-out: Insulin Secretion

Row | Compound | EC50
11 | CCCOc1ccc2nc(NC(=O)OC)[nH]c2c1 [Oxibendazole] | > 10 µM

Same assay, conditions: S2 Table; module primary assay; 20 / 20.1 codes per legend; read-out: Insulin Secretion

Row | Compound | EC50
12 | C[n+]1c2cc(N)ccc2cc2ccc(N)cc21 [Acriflavinium chloride] | > 10 µM

The molecules below were run on NCI-H716 cells (assay: cells). Settings: Homo sapiens, NCI-H716; read-out: GLP 1 Secretion.
Format: cell-based, Human

Row | Compound | EC50
13 | CCCOc1ccc2nc(NC(=O)OC)[nH]c2c1 [Oxibendazole] | > 10 µM

Same assay, conditions: IC50 / EC50; NCI-H716; read-out: GLP 1 Secretion

Row | Compound | EC50
14 | Cc1cc(O)c2ccccc2c1O [2-Methyl-1,4-naphthalenediol] | > 10 µM
15 | CCCCCCCCCCCCCCCCCCNC(=O)OC1CCN(C(=O)OC[C@H](COC(=O)N(Cc2cccc[n+]2CC)C(=O)c2ccccc2OC)OC)CC1 [E-5880] | 9.52 µM

Same assay, conditions: S2 Table; module primary assay; 20 / 20.1 codes per legend; read-out: GLP 1 Secretion

Row | Compound | EC50
16 | C[n+]1c2cc(N)ccc2cc2ccc(N)cc21 [Acriflavinium chloride] | > 10 µM

What follows are molecules tested on HeLa cells (assay: cells). Settings: Homo sapiens, HeLa, S2 Table; HeLa; 20 = no response at highest concentration; read-out: CellCycle G2/M.
Format: cell-based

Row | Compound | EC50
17 | CCCOc1ccc2nc(NC(=O)OC)[nH]c2c1 [Oxibendazole] | 0.0567 µM

Same assay, conditions: IC50 / EC50; HeLa; read-out: CellCycle G2/M

Row | Compound | EC50
18 | Cc1cc(O)c2ccccc2c1O [2-Methyl-1,4-naphthalenediol] | > 10 µM
19 | CCCCCCCCCCCCCCCCCCNC(=O)OC1CCN(C(=O)OC[C@H](COC(=O)N(Cc2cccc[n+]2CC)C(=O)c2ccccc2OC)OC)CC1 [E-5880] | > 10 µM

Same assay, conditions: S2 Table; HeLa; 20 = no response at highest concentration; read-out: CellCycle G2/M

Row | Compound | EC50
20 | C[n+]1c2cc(N)ccc2cc2ccc(N)cc21 [Acriflavinium chloride] | > 10 µM

What follows are molecules tested on DLD-1 (assay: cells). Settings: Homo sapiens, DLD-1, basal; DLD-1; read-out: Basal_Viability ATP DLD-1.
Format: cell-based

Row | Compound | IC50
21 | CCCOc1ccc2nc(NC(=O)OC)[nH]c2c1 [Oxibendazole] | > 20 µM

Same assay, conditions: basal; DLD-1; read-out: Basal_Viability ATP DLD-1

Row | Compound | IC50
22 | C[n+]1c2cc(N)ccc2cc2ccc(N)cc21 [Acriflavinium chloride] | 4.03 µM

Same assay, conditions: basal; read-out: Basal_Viability ATP DLD-1

Row | Compound | IC50
23 | Cc1cc(O)c2ccccc2c1O [2-Methyl-1,4-naphthalenediol] | 10 µM
24 | CCCCCCCCCCCCCCCCCCNC(=O)OC1CCN(C(=O)OC[C@H](COC(=O)N(Cc2cccc[n+]2CC)C(=O)c2ccccc2OC)OC)CC1 [E-5880] | 3.28 µM

Each molecule was assayed on SW480 (assay: cells). Settings: Homo sapiens, SW480, basal; SW480; read-out: Basal_Viability ATP SW480.
Format: cell-based

Row | Compound | IC50
25 | CCCOc1ccc2nc(NC(=O)OC)[nH]c2c1 [Oxibendazole] | > 20 µM

Same assay, conditions: basal; SW480; read-out: Basal_Viability ATP SW480

Row | Compound | IC50
26 | C[n+]1c2cc(N)ccc2cc2ccc(N)cc21 [Acriflavinium chloride] | 1.26 µM

Same assay, conditions: basal; read-out: Basal_Viability ATP SW480

Row | Compound | IC50
27 | Cc1cc(O)c2ccccc2c1O [2-Methyl-1,4-naphthalenediol] | 7.08 µM
28 | CCCCCCCCCCCCCCCCCCNC(=O)OC1CCN(C(=O)OC[C@H](COC(=O)N(Cc2cccc[n+]2CC)C(=O)c2ccccc2OC)OC)CC1 [E-5880] | 0.543 µM

The molecules below were run on HCT116 (assay: cells). Settings: Homo sapiens, HCT-116, basal; HCT116; read-out: Basal_Viability ATP HCT116.
Format: cell-based

Row | Compound | IC50
29 | CCCOc1ccc2nc(NC(=O)OC)[nH]c2c1 [Oxibendazole] | 4.75 µM

Same assay, conditions: basal; HCT116; read-out: Basal_Viability ATP HCT116

Row | Compound | IC50
30 | C[n+]1c2cc(N)ccc2cc2ccc(N)cc21 [Acriflavinium chloride] | 10.3 µM

Same assay, conditions: basal; read-out: Basal_Viability ATP HCT116

Row | Compound | IC50
31 | Cc1cc(O)c2ccccc2c1O [2-Methyl-1,4-naphthalenediol] | 1.49 µM
32 | CCCCCCCCCCCCCCCCCCNC(=O)OC1CCN(C(=O)OC[C@H](COC(=O)N(Cc2cccc[n+]2CC)C(=O)c2ccccc2OC)OC)CC1 [E-5880] | 4.11 µM

The molecules below were run on HCT116 cells treated with a GSK3β inhibitor (assay: cells). Settings: GSK3b inhibitor pretreated; read-out: GSK3b inh pretreated_Viability ATP HCT116.
Format: cell-based

Row | Compound | IC50
33 | Cc1cc(O)c2ccccc2c1O [2-Methyl-1,4-naphthalenediol] | 9.45 µM
34 | CCCCCCCCCCCCCCCCCCNC(=O)OC1CCN(C(=O)OC[C@H](COC(=O)N(Cc2cccc[n+]2CC)C(=O)c2ccccc2OC)OC)CC1 [E-5880] | 4.42 µM

Same assay, conditions: HCT116 pretreated with GSK3b inhibitor; read-out: GSK3b inh pretreated_Viability ATP HCT116

Row | Compound | IC50
35 | C[n+]1c2cc(N)ccc2cc2ccc(N)cc21 [Acriflavinium chloride] | 4.36 µM

Same assay, conditions: Homo sapiens, HCT-116; HCT116 pretreated with GSK3b inhibitor; read-out: GSK3b inh pretreated_Viability ATP HCT116

Row | Compound | IC50
36 | CCCOc1ccc2nc(NC(=O)OC)[nH]c2c1 [Oxibendazole] | > 20 µM

Each molecule was assayed against T1, hp70S6K1 (RPS6KB1) (Homo sapiens, UniProt P23443) (assay: Cerep LANCE kinase assay hp70S6K1 (S1 assay 31)). Settings: kinase assay; read-out: p70S6K1.
T1 construct: purchased Cerep (LANCE kinase assay platform, contract assay)
Format: biochemical

T1 sequence (P23443 whole entry): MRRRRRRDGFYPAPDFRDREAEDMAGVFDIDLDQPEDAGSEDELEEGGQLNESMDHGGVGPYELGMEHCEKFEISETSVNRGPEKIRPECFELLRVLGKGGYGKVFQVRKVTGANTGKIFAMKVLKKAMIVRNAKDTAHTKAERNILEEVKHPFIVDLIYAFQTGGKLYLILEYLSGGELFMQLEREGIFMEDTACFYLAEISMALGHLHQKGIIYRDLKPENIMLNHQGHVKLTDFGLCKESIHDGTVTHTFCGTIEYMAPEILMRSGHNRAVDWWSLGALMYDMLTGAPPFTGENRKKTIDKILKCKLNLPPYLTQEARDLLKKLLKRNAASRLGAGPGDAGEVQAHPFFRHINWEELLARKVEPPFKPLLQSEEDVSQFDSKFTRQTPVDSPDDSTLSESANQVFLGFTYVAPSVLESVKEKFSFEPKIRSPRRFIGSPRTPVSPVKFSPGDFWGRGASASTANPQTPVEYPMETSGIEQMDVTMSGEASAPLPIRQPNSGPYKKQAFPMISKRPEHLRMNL

Row | Compound | IC50
37 | CCCOc1ccc2nc(NC(=O)OC)[nH]c2c1 [Oxibendazole] | > 20 µM
38 | C[n+]1c2cc(N)ccc2cc2ccc(N)cc21 [Acriflavinium chloride] | 6.57 µM

Same assay, conditions: read-out: p70S6K1

Row | Compound | IC50
39 | Cc1cc(O)c2ccccc2c1O [2-Methyl-1,4-naphthalenediol] | > 20 µM
40 | CCCCCCCCCCCCCCCCCCNC(=O)OC1CCN(C(=O)OC[C@H](COC(=O)N(Cc2cccc[n+]2CC)C(=O)c2ccccc2OC)OC)CC1 [E-5880] | > 20 µM

What follows are molecules tested against T2, hKDR (Homo sapiens, UniProt P35968) (assay: Cerep LANCE kinase assay hKDR (S1 assay 32)). Settings: kinase assay; read-out: KDR.
T2 construct: purchased Cerep (LANCE kinase assay platform, contract assay)
Format: biochemical

T2 sequence (P35968 20-1356): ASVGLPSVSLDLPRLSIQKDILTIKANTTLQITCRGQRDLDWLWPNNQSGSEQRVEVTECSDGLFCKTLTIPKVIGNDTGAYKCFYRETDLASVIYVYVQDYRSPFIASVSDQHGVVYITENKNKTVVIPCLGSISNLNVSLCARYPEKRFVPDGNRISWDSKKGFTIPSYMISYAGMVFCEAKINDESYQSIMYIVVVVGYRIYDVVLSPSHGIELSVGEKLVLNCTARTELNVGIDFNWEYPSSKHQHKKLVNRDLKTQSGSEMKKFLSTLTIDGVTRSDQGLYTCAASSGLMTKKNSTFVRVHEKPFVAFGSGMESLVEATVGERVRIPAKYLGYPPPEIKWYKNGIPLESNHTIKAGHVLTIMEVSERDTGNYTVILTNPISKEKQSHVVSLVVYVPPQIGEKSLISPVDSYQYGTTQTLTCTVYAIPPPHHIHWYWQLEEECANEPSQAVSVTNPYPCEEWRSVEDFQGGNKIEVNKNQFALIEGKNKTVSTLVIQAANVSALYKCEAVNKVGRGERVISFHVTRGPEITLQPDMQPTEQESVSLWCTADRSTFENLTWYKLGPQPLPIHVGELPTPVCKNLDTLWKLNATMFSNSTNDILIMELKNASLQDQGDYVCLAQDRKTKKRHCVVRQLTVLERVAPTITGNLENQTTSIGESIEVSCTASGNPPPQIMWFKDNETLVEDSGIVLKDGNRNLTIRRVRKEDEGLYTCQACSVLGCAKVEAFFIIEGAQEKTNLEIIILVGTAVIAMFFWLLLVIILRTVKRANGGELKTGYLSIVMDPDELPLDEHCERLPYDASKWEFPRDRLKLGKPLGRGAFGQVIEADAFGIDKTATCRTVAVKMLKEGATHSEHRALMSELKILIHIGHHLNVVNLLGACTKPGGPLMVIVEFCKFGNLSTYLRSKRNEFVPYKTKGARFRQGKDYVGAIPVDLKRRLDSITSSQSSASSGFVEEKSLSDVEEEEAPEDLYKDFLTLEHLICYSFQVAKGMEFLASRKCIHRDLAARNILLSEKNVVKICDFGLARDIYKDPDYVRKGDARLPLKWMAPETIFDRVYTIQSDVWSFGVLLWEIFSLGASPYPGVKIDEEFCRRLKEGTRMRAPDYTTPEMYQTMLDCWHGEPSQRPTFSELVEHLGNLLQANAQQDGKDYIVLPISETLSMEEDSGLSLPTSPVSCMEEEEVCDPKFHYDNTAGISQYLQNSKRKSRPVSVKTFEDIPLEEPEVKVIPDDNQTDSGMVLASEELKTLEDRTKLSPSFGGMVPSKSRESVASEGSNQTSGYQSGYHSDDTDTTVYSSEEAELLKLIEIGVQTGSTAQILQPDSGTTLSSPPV

Row | Compound | IC50
41 | CCCOc1ccc2nc(NC(=O)OC)[nH]c2c1 [Oxibendazole] | > 20 µM
42 | C[n+]1c2cc(N)ccc2cc2ccc(N)cc21 [Acriflavinium chloride] | > 20 µM

Same assay, conditions: read-out: KDR

Row | Compound | IC50
43 | Cc1cc(O)c2ccccc2c1O [2-Methyl-1,4-naphthalenediol] | 18.4 µM
44 | CCCCCCCCCCCCCCCCCCNC(=O)OC1CCN(C(=O)OC[C@H](COC(=O)N(Cc2cccc[n+]2CC)C(=O)c2ccccc2OC)OC)CC1 [E-5880] | > 20 µM

These molecules were tested against T3, hJAK2 (Homo sapiens, UniProt O60674) (assay: Cerep LANCE kinase assay hJAK2 (S1 assay 33)). Settings: kinase assay; read-out: JAK2.
T3 construct: purchased Cerep (LANCE kinase assay platform, contract assay)
Format: biochemical

T3 sequence (O60674 whole entry): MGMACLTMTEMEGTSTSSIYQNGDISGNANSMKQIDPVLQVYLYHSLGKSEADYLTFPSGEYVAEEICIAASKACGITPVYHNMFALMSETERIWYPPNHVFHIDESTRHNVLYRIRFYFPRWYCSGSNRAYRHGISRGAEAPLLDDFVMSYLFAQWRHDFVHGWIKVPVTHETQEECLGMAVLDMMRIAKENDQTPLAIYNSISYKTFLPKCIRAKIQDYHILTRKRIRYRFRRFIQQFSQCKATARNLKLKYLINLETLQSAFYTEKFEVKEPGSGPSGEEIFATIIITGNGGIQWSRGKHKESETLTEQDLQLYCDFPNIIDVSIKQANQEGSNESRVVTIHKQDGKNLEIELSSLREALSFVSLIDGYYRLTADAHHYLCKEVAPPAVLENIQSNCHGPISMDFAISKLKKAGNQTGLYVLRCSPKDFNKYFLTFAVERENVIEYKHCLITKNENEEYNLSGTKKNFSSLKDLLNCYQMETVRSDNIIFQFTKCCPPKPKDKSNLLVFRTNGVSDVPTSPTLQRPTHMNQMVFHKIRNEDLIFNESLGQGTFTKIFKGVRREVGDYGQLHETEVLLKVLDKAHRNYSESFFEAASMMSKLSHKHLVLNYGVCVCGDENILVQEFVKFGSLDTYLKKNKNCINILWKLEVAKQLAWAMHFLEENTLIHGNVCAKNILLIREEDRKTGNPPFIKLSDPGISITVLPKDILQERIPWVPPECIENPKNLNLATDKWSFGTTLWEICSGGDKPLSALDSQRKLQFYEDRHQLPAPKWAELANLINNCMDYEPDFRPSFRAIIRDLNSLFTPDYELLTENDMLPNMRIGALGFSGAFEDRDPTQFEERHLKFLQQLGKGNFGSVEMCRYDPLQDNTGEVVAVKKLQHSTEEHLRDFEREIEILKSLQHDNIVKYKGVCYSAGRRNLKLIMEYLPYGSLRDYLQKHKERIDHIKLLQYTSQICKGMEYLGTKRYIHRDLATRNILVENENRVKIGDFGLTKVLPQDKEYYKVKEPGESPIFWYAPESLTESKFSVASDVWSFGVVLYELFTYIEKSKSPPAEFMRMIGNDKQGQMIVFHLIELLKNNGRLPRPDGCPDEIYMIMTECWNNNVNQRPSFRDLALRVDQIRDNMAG

Row | Compound | IC50
45 | CCCOc1ccc2nc(NC(=O)OC)[nH]c2c1 [Oxibendazole] | > 20 µM
46 | C[n+]1c2cc(N)ccc2cc2ccc(N)cc21 [Acriflavinium chloride] | > 20 µM

Same assay, conditions: read-out: JAK2

Row | Compound | IC50
47 | Cc1cc(O)c2ccccc2c1O [2-Methyl-1,4-naphthalenediol] | > 20 µM
48 | CCCCCCCCCCCCCCCCCCNC(=O)OC1CCN(C(=O)OC[C@H](COC(=O)N(Cc2cccc[n+]2CC)C(=O)c2ccccc2OC)OC)CC1 [E-5880] | > 20 µM

What follows are molecules tested against T4, hGSK3b (Homo sapiens, UniProt P49841) (assay: Cerep LANCE kinase assay hGSK3b (S1 assay 34)). Settings: kinase assay; read-out: GSK3b.
T4 construct: purchased Cerep (LANCE kinase assay platform, contract assay)
Format: biochemical

T4 sequence (P49841 whole entry): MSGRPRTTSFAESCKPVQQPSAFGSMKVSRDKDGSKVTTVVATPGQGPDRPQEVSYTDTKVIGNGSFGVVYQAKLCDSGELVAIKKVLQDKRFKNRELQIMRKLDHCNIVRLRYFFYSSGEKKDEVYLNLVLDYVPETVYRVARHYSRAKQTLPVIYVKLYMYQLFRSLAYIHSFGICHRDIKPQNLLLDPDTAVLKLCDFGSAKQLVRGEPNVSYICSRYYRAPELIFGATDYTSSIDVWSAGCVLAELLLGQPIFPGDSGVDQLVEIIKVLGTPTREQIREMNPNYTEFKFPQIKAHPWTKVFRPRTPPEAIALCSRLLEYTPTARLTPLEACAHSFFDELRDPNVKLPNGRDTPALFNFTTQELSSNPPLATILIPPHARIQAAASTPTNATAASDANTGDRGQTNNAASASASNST

Row | Compound | IC50
49 | CCCOc1ccc2nc(NC(=O)OC)[nH]c2c1 [Oxibendazole] | > 20 µM
50 | C[n+]1c2cc(N)ccc2cc2ccc(N)cc21 [Acriflavinium chloride] | > 20 µM

Same assay, conditions: read-out: GSK3b

Row | Compound | IC50
51 | Cc1cc(O)c2ccccc2c1O [2-Methyl-1,4-naphthalenediol] | 19.1 µM
52 | CCCCCCCCCCCCCCCCCCNC(=O)OC1CCN(C(=O)OC[C@H](COC(=O)N(Cc2cccc[n+]2CC)C(=O)c2ccccc2OC)OC)CC1 [E-5880] | > 20 µM

These molecules were tested against T5, hFLT3 (Homo sapiens, UniProt P36888) (assay: Cerep LANCE kinase assay hFLT3 (S1 assay 35)). Settings: kinase assay; read-out: FLT3.
T5 construct: purchased Cerep (LANCE kinase assay platform, contract assay)
Format: biochemical

T5 sequence (P36888 27-993): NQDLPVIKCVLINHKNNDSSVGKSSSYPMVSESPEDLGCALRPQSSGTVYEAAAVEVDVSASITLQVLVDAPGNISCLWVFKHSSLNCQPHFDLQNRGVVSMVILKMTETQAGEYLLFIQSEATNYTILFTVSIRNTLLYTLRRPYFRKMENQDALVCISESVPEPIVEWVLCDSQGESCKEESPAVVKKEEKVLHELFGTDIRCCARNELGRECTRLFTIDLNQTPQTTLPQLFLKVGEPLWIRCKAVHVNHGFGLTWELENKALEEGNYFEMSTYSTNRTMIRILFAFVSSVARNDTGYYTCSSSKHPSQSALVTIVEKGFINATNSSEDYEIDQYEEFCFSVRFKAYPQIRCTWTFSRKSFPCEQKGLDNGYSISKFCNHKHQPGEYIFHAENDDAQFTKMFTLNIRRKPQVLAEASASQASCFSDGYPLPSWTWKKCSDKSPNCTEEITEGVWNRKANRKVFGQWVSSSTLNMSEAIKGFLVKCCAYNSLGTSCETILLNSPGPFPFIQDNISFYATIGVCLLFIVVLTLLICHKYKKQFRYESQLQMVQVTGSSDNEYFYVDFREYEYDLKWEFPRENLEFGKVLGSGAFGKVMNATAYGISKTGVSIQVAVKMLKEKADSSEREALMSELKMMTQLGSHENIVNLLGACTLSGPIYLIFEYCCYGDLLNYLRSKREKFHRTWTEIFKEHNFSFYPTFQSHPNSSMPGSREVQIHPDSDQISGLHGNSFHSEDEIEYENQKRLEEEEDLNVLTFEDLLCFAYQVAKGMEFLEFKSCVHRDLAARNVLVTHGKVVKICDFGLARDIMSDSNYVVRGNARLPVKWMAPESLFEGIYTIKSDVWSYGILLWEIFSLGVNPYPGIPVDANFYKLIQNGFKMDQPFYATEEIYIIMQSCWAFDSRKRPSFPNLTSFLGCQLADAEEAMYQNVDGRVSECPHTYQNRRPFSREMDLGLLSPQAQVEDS

Row | Compound | IC50
53 | CCCOc1ccc2nc(NC(=O)OC)[nH]c2c1 [Oxibendazole] | > 20 µM
54 | C[n+]1c2cc(N)ccc2cc2ccc(N)cc21 [Acriflavinium chloride] | > 20 µM

Same assay, conditions: read-out: FLT3

Row | Compound | IC50
55 | Cc1cc(O)c2ccccc2c1O [2-Methyl-1,4-naphthalenediol] | > 20 µM
56 | CCCCCCCCCCCCCCCCCCNC(=O)OC1CCN(C(=O)OC[C@H](COC(=O)N(Cc2cccc[n+]2CC)C(=O)c2ccccc2OC)OC)CC1 [E-5880] | > 20 µM
